From PMC12162873, “Modulating phosphatase DUSP22 with BML-260 ameliorates skeletal muscle wasting via Akt independent JNK-FOXO3a repression” (EMBO Molecular Medicine, 2025)

Tests used:
C2C12 myotubes = experiment: SUnSET assay of protein synthesis; type: cell-based, mouse; settings: 10 μM Dex 24 h, 12.5 μM BML-260
Protocol: The surface sensing of translation (SUnSET) assay was used to measured protein synthesis, in accordance with the published protocol (Vinel et al, [2018]). In brief, 1 μg/mL puromycin was added to the myotube cultures and cell lysates were then harvested 10 min later. Western blotting was carried out using an anti-puromycin 12D10 antibody (MABE343; Millipore).

DUSP22 = system: DUSP22; design: method as in Cutshall et al, 2005; settings: ref Cutshall et al, 2005, cited from earlier work
human skeletal myotubes = experiment: Dex-induced atrophy of human donor skeletal myotubes, myotube diameter; type: cell-based; settings: 10 μM Dex and 12.5 μM BML-260 for 24 h
Source text: Figure 9 DUSP22 targeting downregulates atrogene expression in immobilized skeletal muscle and inhibits atrophy in human donor myotubes. (A) Effect of immobilization on skeletal muscle mass using the plastic EP tube method (n = 3). (B) qPCR analysis of DUSP22 expression in the TA muscle (IM = immobilized) (n = 3) (p = 0.018). (C) Plot of DUSP22 expression in relation to TA mass (n = 6). (D) Western blot analysis of DUSP22 expression (n = 3) (p = 0.1699). (E) TA mass (n = 9,7) (p = (Sham = <0.0001, BML-260 = 0.007)). […] Quantification of atrogin-1, MuRF-1, and DUSP22 levels relative to GAPDH are also shown. […]
Human skeletal myoblasts were purchased from Thermo-Fisher Scientific, USA, re-suspended in DM and seeded onto 12-well culture plates at a density of 4.8 × 10^4 cells/well. 72 h later, the differentiated myotubes were treated with 10 μM Dex for 24 h, stained with haematoxylin and eosin (H&E) using a kit (Merck, Germany) and myotube diameter measured by light microscopy analysis of DIC captured images (Olympus CKX41, Olympus Life Science, Japan) and the NIH imaging software Image J 64 (National Institutes of Health, MD, USA). At least 80 myotubes in 5 micrographs were measured in each experimental group.

[1] = system: TA muscle of C57BL/6 mice; experiment: Whole genome RNA-Seq of TA muscle of geriatric mice; type: in vivo, mouse; settings: 5 mg/kg IP every 24 h for 4 weeks
Source text: Figure 8 Whole genome RNA Seq analysis of DUSP22 pharmacological targeting in geriatric mouse TA muscle. (A) Principal component analysis of gene expression variance in the vehicle treated (Con) and BML-260 treated groups (n = 3). (B) Volcano plot of differentially expressed genes. Selected genes linked to FOXO3a signaling are indicated. (C) Expression analysis of genes related to FOXO3a signaling measured by overall TPM fold change. The control was set as the baseline value of 1. A value of 2 would indicate a 2-fold increase, and 0.5 would indicates a 2-fold decrease. (D) Expression of selected genes linked to FOXO3a signaling as normalized counts from the raw read. (E) Expression of the exercise-induced myokine musclin (Ostn). (F) Gene ontology (GO) analysis of the […] muscle cell differentiation and muscle fiber development. Also shown are Six1 and Six4 (which specify fast twitch myofiber development), Ostn and fast myosin (MYH4; the predominant myosin type in the fast-twitch TA muscle). Box plots represent the distribution of Fbxo32, Trim63, Fbxo30, Gadd45a, Ctsl, Bnip3, Ostn expression levels. The center line indicates the median (50th percentile, Q2), representing the middle value of the dataset. The box bounds correspond to the interquartile range (IQR), extending from the 25th percentile (Q1, lower bound) to the 75th percentile (Q3, upper bound). Whiskers extend to the smallest and largest values within 1.5 × IQR from Q1 and Q3, representing the minimum (lower whisker) and maximum (upper whisker) values within this range. […] Error bars represent the standard error of the mean (SEM). Source data are available online for this figure.
RNA samples were harvested from the TA muscles of 24–26-month-old male C57BL/6 mice treated as follows: (1) vehicle alone (5% DMSO + 5% tween 80) and (2) 5 mg/kg BML-260. Mice were treated by IP delivery every 24 h for 4 weeks (n = 3 per group). RNA-Seq was provided by Macrogen, Republic of Korea. Prior to the commencement of sequencing, QC was carried out using FastQC v0.11.7 (http://www.bioinformatics.babraham.ac.uk/projects/fastqc/). Illumina paired ends or single ends in the sequenced samples were trimmed using Trimmomatic 0.38 with various parameters (http://www.usadellab.org/cms/?page=trimmomatic). The sequences of the samples were mapped and analyzed using HISAT2 version 2.1,0, Bowtie2 2.3.4.1 (https://ccb.jhu.edu/software/hisat2/index.shtml). Potential transcripts and multiple splice variants were assembled using StringTie version 2.1.3b (https://ccb.jhu.edu/software/stringtie/). The normalized sample counts were generated using DESeq2, which was also used for normalization, visualization, and differential analysis. PCA was performed using normalized sample counts. The “apeglm” type was used to calculate shrink log2 fold changes.

**Q.** Which “protein synthesis (puromycin incorporation)” value (C2C12 myotubes) does the source give for `O=C(O)c1ccc(N2C(=O)C(=Cc3ccccc3)SC2=S)cc1` (stereo in doubt) [BML-260] here?
**A.** prevented the reduction in protein synthesis

**Q.** What about the IC50 (DUSP22; EGF-R peptide P32-based assay) of the same compound?
**A.** 18 µM

**Q.** What about the “IC50 for DUSP22 (in words)” value (DUSP22) of the same compound?
**A.** low micromolar range

**Q.** What about the “mode of DUSP22 inhibition” value (DUSP22) of the same compound?
**A.** competitive inhibitor

**Q.** And the mean myotube diameter (human skeletal myotubes)?
**A.** recovered the mean myotube diameter

**Q.** And the “expression of Six1 and Six4” value [1]?
**A.** upregulated

**Q.** What about the “expression of fast myosin (MYH4)” value [1] of the same compound?
**A.** increased

**Q.** And the “expression of musclin (OSTN)” value [1]?
**A.** upregulated

**Q.** And the “genes linked to FOXO3a signaling (including atrogin-1 and MuRF-1)” value [1]?
**A.** downregulated

**Q.** What about the “genes linked to the PI3K-Akt pathway” value [1] of the same compound?
**A.** downregulated

**Q.** And the “number of differentially expressed genes (DEGs)” value ([1]; versus vehicle)?
**A.** 350
